This is an account of results in US8536157B2, “Non-steroidal compounds” (The University of Melbourne, priority 2007, dated 2013).

Each structure is given as a SMILES string.

Data set [1] deals with human airway smooth muscle (HASM) cells. Briefly: Proliferation of human airway smooth muscle cells in response to thrombin (cell counting). The following applies: given as Log IC50 (negative values), thrombin 0.3 U/ml, 48 h, compound pre-incubated 30 minutes. In kind it is cell-based. From the text: (§1) 3. Effects of Compounds on the Proliferation of Cells in Response to the Proliferative Stimulus of Either Thrombin (Human Airway Smooth Muscle) or Basic Fibroblast Growth Factor (bFGF)(Human Lung Parenchymal Fibroblasts, pFb)
(§2) The effects of compounds of the present invention on the proliferation of cells in response to the proliferative stimulus of either thrombin (human airway smooth muscle) or basic fibroblast growth factor (bFGF)(human lung parenchymal fibroblasts, pFb) were investigated. Cells were seeded onto 6-well plates at a density of 1.5×10^4 cells cm^2, made quiescent by removal of serum-containing media for 24 hours and then stimulated for 48 h with either thrombin (0.3 U/ml) or bFGF (300 pM). The test compounds were pre-incubated with HASM or pFb cells for 30 minutes before the addition of thrombin. At the end of the 48 hour incubation period, cells were detached from the culture plate by trypsin (0.5% w/v in PBS containing 1 mM EDTA), incubated for 5 minutes at ambient temperature in PBS containing 0.5% (w/v) trypan blue, washed twice (2% FCS in PBS), isolated by centrifugation (12,000×g, 5 min) and resuspended in 200 μl 2% FCS in PBS for counting in a haemocytometer chamber.
Human airway smooth muscle (HASM) cells were cultured from macroscopically normal bronchi (0.5-2 cm diameter) obtained from lung resection or heart-lung transplant specimens provided by the Alfred Hospital (Melbourne) according to methods published in detail previously (Fernandes et al., 1999).
Approximately 0.1 g of smooth muscle was stripped from the wall of the bronchus for each cell culture. Dissected tissue was immersed in Dulbecco's modified Eagle's medium (DMEM) (Flow Laboratories, Scotland), supplemented with 100 U/mL penicillin G (CSL, Australia) and 100 μg/mL streptomycin (CSL, Australia). The tissue was rinsed in phosphate buffered saline (PBS; Oxoid, England) and the airway smooth muscle was chopped into 2 mm^3 pieces and digested for 2 hours in DMEM containing elastase (0.5 mg/mL: Worthington Biochemical, USA) followed by a 12 hour incubation in DMEM containing collagenase (1 mg/mL) (Worthington Biochemical, USA), at 37° C. with agitation.
The resulting cell suspension was centrifuged and washed three times in phosphate buffered saline (PBS). Following the last centrifugation step, the cells were resuspended in 25 mL of DMEM supplemented with L-glutamine (2 mM: Sigma, USA), penicillin G (100 U/mL), streptomycin (100 μg/mL), amphotericin B (2 μg/mL: Wellcome, UK) and heat-inactivated FCS (10% v/v: CSL, Australia) and seeded into 25 cm^2 culture flasks. The primary isolates were incubated for 7 to 14 days to reach confluence. […]

Data set [2] relates to human lung parenchymal fibroblasts, pFb. As to the kind of experiment: Proliferation of human lung parenchymal fibroblasts in response to bFGF (cell counting). In kind it is cell-based. The conditions noted are these: Fibroblast, given as Log IC50 (negative values), bFGF 300 pM, 48 h.
From the text: as §1
as §2, with “chamber. […]” for “chamber.”

The subject of data set [3] is PGE2 release in J774 macrophages. As to the kind of experiment: PGE2 release from LPS/IFNγ-stimulated J774 macrophages (radioimmunoassay). In kind it is cell-based, murine. The following applies: Mus musculus, J774, 24 h, 30 min pre-treatment, 24 hour incubation; for activity at 1 µM: read-out: Effects on PGE2 release in J774 macrophages at 1 μM as a % of LPS/IFNγ control, mean; for activity at 10 µM: l0 μM, read-out: Effects on PGE2 release in J774 macrophages at l0 μM as a % of LPS/IFNγ control, mean.

Data set [4] concerns the target proteins in rat lung membranes. As to the kind of experiment: Competitive binding assay with [3H]-CP2117 on rat lung membranes (RLM). The following applies: given as Log IC50 (negative values); displacement of 10 nM [3H]-CP2117, overnight at 4° C.; ND- not detected.
The conditions of data set [5]: see WO 2004/101595; cited from earlier work.
Data set [6] has as its system LPS-induced pulmonary inflammation in mice. Briefly: Model of pulmonary inflammation induced by intra-nasal delivery of LPS. Type of data set: in vivo. The following applies: CP933 150 mg/kg ip, dexamethasone 1 mg/kg ip, 2 hours after intranasal LPS.
Protocol: The effect of the compounds of the present invention on BAL cell number, total BAL protein and inflammatory gene expression may be analysed. As an example, female Balb/c mice (17-21 g) may be given a single intraperitoneal (i.p.) injection of vehicle or CP92 (150, 50, 15 and 5 mg/kg in peanut oil DMSO). Two hours after the mice would be anaesthetised with methoxyflurane and a droplet of LPS (1 μg in saline) or sterile saline would be applied to the nose. As the animals breathe through their nose, the LPS or saline would be inhaled and gain access to the lung tissue. Twenty four hours post-LPS administration, mice would be euthanized with a mixture of 200 μl ketamine and 10 μl xylazine i.p., tracheotomised and bronchoalveolar lavage (BAL) performed for the assessment of cell number, cell type and protein content. The lungs would be removed and weighed as an indicator of any adverse effects of the drug treatment. Total RNA would be isolated from the lung tissues for analysis of gene expression (mRNA) using RT-PCR.
Data set [7] concerns PGE2 release in U937 cells. Briefly: PGE2 release from PMA-treated U937 cells (radioimmunoassay). In kind it is cell-based, human. The following applies: Homo sapiens, U-937, 24 h, 24 hour incubation, read-out: Effects on PGE2 release in U937 cells at 1 μM as a % of PMA control, mean. How it is done:
The U937 monocytic cell line (available from the ATCC, USA) is commonly used to evaluate anti-inflammatory agents. In the present experiment, U937 cells maintained in culture in a medium comprising RPMI containing (5% FCS v/v; supplemented with 100 U/ml penicillin, and […] streptomycin) were treated with phorbol myristate acetate (10 nM) then immediately dispersed into a 24 well cell culture plate at a concentration of 2×10^5 cells per ml in a volume of 1 ml per well. After 24 hours by which time the cells had adhered to the plastic substrate, they were treated with one of several analogues or with the vehicle of 0.1% DMSO. After a further 24 hour incubation period the supernatant was harvested and the content of prostaglandin E2 was measured by a radioimmunoassay, as described by Vlahos, R., & Stewart, A. G. (1999). (“Interleukin-1α and Tumour necrosis factor-α inhibit airway smooth muscle DNA synthesis by a glucocorticoid-sensitive induction of cyclo-oxygenase-2. British Journal of Pharmacology, 126, 1315-1324). […] The data in the table are presented as percentage of the control level of Prostaglandin E2.
Several analogues were evaluated for their actions on the release of PGE2 from the human U937macrophage cell line. Cells were stimulated by exposure to PMA 1 nM and after a period allowed for adherence of cells to the plastic culture dish, the cell were treated with one of several CP analogues. […] The chemical structures of CP1-56 and CP1-58 are as follows: […]

Usually IC50 stands for the concentration that gives 50% inhibition. Read a high IC50 as lower potency. In turn, `CCC(=NOCc1ccc([N+](=O)[O-])cc1)c1ccc(OC)c(O)c1` [CP30221, 3′-Hydroxy-4′-methoxypropiophenone O-4-Nitrobenzyl Oxime] had an IC50 in data set [1] of 2880 nM.

`COc1cc(I)c(C(C)=NOCc2ccc([N+](=O)[O-])cc2)cc1O` [CP30220-minor (Z-), 5′-Hydroxy-2′-iodo-4′-methoxyacetophenone O-4-Nitrobenzyl Oxime]: in data set [1], the IC50 was 38.9 nM.

For the molecule `CCC(=NOCc1ccc([N+](=O)[O-])cc1)c1cc(O)c(OC)cc1I` [CP30222, 5′-Hydroxy-2′-iodo-4′-methoxypropiophenone O-4-Nitrobenzyl Oxime], the IC50 in data set [1] is 8.32 nM.

Usually melting point stands for the temperature of the solid-liquid transition. Turning to `COc1ccc(/C(C)=N/OCc2ccc([N+](=O)[O-])cc2)cc1O` [CP30218, (E)-3′-Hydroxy-4′-methoxyacetophenone O-4-Nitrobenzyl Oxime], the melting point is 105 to 105.7 °C. In data set [2], the IC50 was 6.61 nM. Besides, in data set [3], the activity at 1 µM was 218% and the activity at 10 µM was 188%. Further, the “Log IC50 RLM binding” value in data set [4] is reported as −6.44. Further, the IC50 in data set [1] was 5890 nM.

Take `COc1cc2c(cc1O)C(=NOCc1ccc([N+](=O)[O-])cc1)C[C@@H]1[C@@H]2CC[C@]2(C)[C@@H](O)CC[C@@H]12` [CP-2117, 2-methoxy-6-(4-nitrobenzyloxyimino)estradiol]: the “anti-inflammatory activity in vitro” value in data set [5] is reported as “anti-inflammatory activity”.

With `COc1ccc(/C(C)=N/OCc2ccc3nonc3c2)cc1O` [CP933, 1-(3-hydroxy-4-methoxyphenyl)ethanone-O-[(benzo[c][1,2,5]oxadiazol-5-yl)methyl]oxime], the “Airspace (pulmonary) neutrophilia” value in data set [6] (FIG. 1A) was “attenuated the airspace neutrophilia”. The “Protein in the broncho-alveolar lavage (BAL) fluid” value in data set [6] (FIG. 1B) is listed as “reduced accumulation of protein”. Besides, in data set [3], the activity at 1 µM is 109% and the activity at 10 µM came out at 87%. Besides, in data set [4], the “Log IC50 RLM binding” value is −6.185.

Regarding `COc1cc2c(cc1O)/C(=N/OCc1ccc([N+](=O)[O-])cc1)C(C)(C)CC2` [AA-1-39-2], in data set [7], the activity at 1 µM is 100%. For the same molecule, the “Log IC50 RLM binding” value in data set [4] is on record as −6.19.

Turning to `COc1ccc(C(C)=NOCc2ccc3nonc3c2)cc1OS(N)(=O)=O` [AA-1-81], the activity at 1 µM in data set [7] was 43%. In addition, the “Log IC50 RLM binding” value in data set [4] is reported as −5.25.

For the molecule `COc1cc(/C(C)=N/OCc2ccc3nonc3c2)ccc1OS(N)(=O)=O` [AA-1-78], in data set [7], the activity at 1 µM came to 19%. Moreover, the “Log IC50 RLM binding” value in data set [4] is −4.87.
